Values of other authors, collected in US20130053422A1, “Antimicrobial Compositions” (priority 2010, published 2013).

Tests used:
Conditions in all cases: after 5 to 60 minutes
[1] = system: Herpes virus type 1
[2] = system: Vaccinia virus
[3] = system: bovine parainfluenzae 3

CCCCCCCCCCCC(=O)N[C@@H](CCCN=C(N)N)C(=O)OCC [LAE, lauric arginate]
nearly complete reduction: reduction of Herpes virus type 1 [1] | reduction of Vaccinia virus [2] | reduction of bovine parainfluenzae 3 [3]
